In patent US9353423B2, “HCV genotype 6 replicons” (priority 2012, dated 2016):
Like-named read-outs stand apart in the source and are kept apart here.

Tests used:
GT6aRluc-K34R replicon = test: Replicon antiviral assay, transient transfection, luciferase activity (GT6a, NS4A K34R); assay type: cell-based, Hepatitis C virus genotype 6a; settings: for EC50: Hepatitis C virus, 1C cells, 384-well transient transfection, mean ± SD of at least two experiments
Experimental: (§1) Replicon RNA were electroporated into 1C cells as described above. After transfection, cells were quickly transferred into 100 mL of pre-warmed culture medium, and 90 μl was seeded in 384-well plates at a density of 2,000 cells/well. Cells were treated with three-fold serial drug dilutions at 10 different concentrations. Cell plates were incubated at 37° C. for 3 days, after which culture medium was removed and cells were assayed for luciferase activity as markers for replicon levels. Luciferase expression was quantified using a commercial luciferase assay (Promega). Luciferase levels were converted into percentages relative to the levels in the untreated controls (defined as 100%), and data were fitted to the logistic dose-response equation y=a/[1+(x/b)^c] using XLFit4 software (IDBS, Emeryville, Calif.).
(§2) Five different classes of HCV inhibitors as listed in the first column were evaluated for their antiviral activities against Pi-GT6a-Rluc and Pi-GT1b-Rluc replicons in a high throughput 384-well transient transfection assay, by measuring luciferase activity (Table 5). The data represents an average of at least two independent experiments with standard deviations.

Pi-GT1b-Rluc replicon = test: Replicon antiviral assay, transient transfection, luciferase activity (GT1b); assay type: cell-based, Hepatitis C virus genotype 1b; settings: Hepatitis C virus
Experimental: as §1, §2

GT6aRluc-K272R replicon = test: Replicon antiviral assay, transient transfection, luciferase activity (GT6a, NS3 K272R); assay type: cell-based, Hepatitis C virus genotype 6a; settings: for EC50: Hepatitis C virus, 1C cells, 384-well transient transfection, mean ± SD of at least two experiments
Experimental: as §1, §2

Pi-GT6a-Rluc replicon = test: Replicon antiviral assay, luciferase-encoding GT6a replicon (Table 4); assay type: cell-based, Hepatitis C virus genotype 6a; settings: for EC50: Hepatitis C virus, GT6A, 72 h, read-out: GT6a EC50
Experimental: as §1

[1] = Table 5, read-out: GT6aRluc-K34R EC50
[2] = 72 h, Table 4, 1C cells, 384-well, 3 days, mean ± SD, read-out: GT1b EC50
[3] = Table 5, 1C cells, 384-well transient transfection, mean ± SD of at least two experiments, read-out: GT1bRluc EC50
[4] = Table 5, read-out: GT6aRluc-K272R EC50
[5] = Table 4, 1C cells, 384-well, 3 days, mean ± SD, adaptive mutation not stated
[6] = read-out: GT6aRluc-K34R EC50, Table 5
[7] = read-out: GT6aRluc-K272R EC50, Table 5

| SMILES | EC50 (GT6aRluc-K34R replicon; [1]) [nM] | GT6a(K34R)/1b EC50 Ratio (GT6aRluc-K34R replicon; Table 5) | EC50 (Pi-GT1b-Rluc replicon; [2]) [nM] | EC50 (Pi-GT1b-Rluc replicon; [3]) [nM] | EC50 (GT6aRluc-K272R replicon; [4]) [nM] | GT6a(K272R)/1b EC50 ratio (GT6aRluc-K272R replicon; Table 5) | EC50 (Pi-GT6a-Rluc replicon; [5]) [nM] | GT6a/GT1b EC50 ratio (Pi-GT6a-Rluc replicon; Table 4) | EC50 (Pi-GT6a-Rluc replicon) [nM] | antiviral activity against GT6a compared with GT1b (Pi-GT6a-Rluc replicon; summary of Table 4) | EC50 (GT6aRluc-K34R replicon; [6]) [nM] | EC50 (GT6aRluc-K272R replicon; [7]) [nM] |
| --- | --- | --- | --- | --- | --- | --- | --- | --- | --- | --- | --- | --- |
| Fc1ccccc1-c1nc2ccn(Cc3ccc(-c4ccc(C(F)(F)F)cc4C(F)(F)F)nn3)cc-2n1 [Tegobuvir, tegobuvir] | 119 ± 6 | 45.8 | 2.6 ± 0.2 | 2.6 ± 0.2 | 110 ± 21 | 42.3 | 119 ± 6 | 46 |  |  |  |  |
| CCc1cc(CC[C@]2(C3CCCC3)CC(O)=C(Cc3nc4nc(C)cc(C)n4n3)C(=O)O2)cc(CC)n1 [Filibuvir, filibuvir] | > 4440 | >40 | 112 ± 13 | 112 ± 13 | 3540 ± 93 | 31.6 |  | 32 | 3540 ± 93 |  |  |  |
| COC(=O)N[C@H](C(=O)N1CC2(CC2)C[C@H]1c1nc(-c2ccc3c(c2)C(F)(F)c2cc(-c4ccc5cc([C@@H]6[C@H]7CC[C@H](C7)N6C(=O)[C@@H](NC(=O)OC)C(C)C)[nH]c5c4)ccc2-3)c[nH]1)C(C)C [Compound B] |  |  | 0.007 ± 0.003 |  |  |  | 0.79 ± 0.05 | 113 |  |  |  |  |
| CN(C)CCN(C)[C@H]1COc2ccccc2-c2c(C3CCCCC3)c3ccc(C(=O)O)cc3n2C1 [MK-3281] | 1280 ± 471 | 2.4 |  | 534 ± 47 | 1310 ± 635 | 2.5 |  |  |  |  |  |  |
| COC(=O)N[C@H](C(=O)N1CCC[C@H]1c1nc(-c2ccc(-c3ccc(-c4c[nH]c([C@@H]5CCCN5C(=O)[C@@H](NC(=O)OC)C(C)C)n4)cc3)cc2)c[nH]1)C(C)C [Daclatasvir, daclatasvir] | 0.04 ± 0.01 | 1.2 | 0.034 ± 0.018 | 0.034 ± 0.018 | 0.08 ± 0.04 | 2.4 | 0.06 ± 0.03 | 1.8 |  |  |  |  |
| CC(C)OC(=O)[C@H](C)N[P@](=O)(OC[C@H]1O[C@@H](n2ccc(=O)[nH]c2=O)[C@](C)(F)[C@@H]1O)Oc1ccccc1 [Sofosbuvir, sofosbuvir] | 14 ± 4 | 0.4 | 39 ± 1.1 | 39 ± 1.1 | 14 ± 5 | 0.4 | 14 ± 4.1 | 0.4 |  |  |  |  |
| CCC[C@H](NC(=O)[C@@H]1[C@H]2CCC[C@H]2CN1C(=O)[C@@H](NC(=O)[C@@H](NC(=O)c1cnccn1)C1CCCCC1)C(C)(C)C)C(=O)C(=O)NC1CC1 [Telaprevir] | 349 ± 20 | 0.8 | 428 ± 22 | 428 ± 22 | 208 ± 41 | 0.5 | 349 ± 20 | 0.8 |  |  |  |  |
| C=C[C@@H]1C[C@]1(NC(=O)[C@@H]1C[C@@H]2CN1C(=O)[C@H](C(C)(C)C)NC(=O)O[C@@H]1C[C@H]1CCCCCc1nc3ccc(OC)cc3nc1O2)C(=O)NS(=O)(=O)C1CC1 [MK-5172] | 1.4 ± 0.3 | 1.9 | 0.74 ± 0.07 | 0.74 ± 0.07 | 3 ± 0.4 | 4.1 |  | 3.1 | 2.3 ± 0.3 |  |  |  |
| CCC1C[C@]1(NC(=O)[C@@H]1C[C@@H](Oc2cc(-c3csc(NC(C)C)n3)nc3c(Cl)c(OCCN4CCOCC4)ccc23)CN1C(=O)[C@@H](NC(=O)O[C@@H]1C[C@@H]2C[C@@H]2C1)C(C)(C)C)C(=O)O (some centres unmarked) [Compound A] |  |  | 8.3 ± 1.6 |  |  |  | 72 ± 25 | 8.7 |  |  |  |  |
| CC1=CC[C@H](C(=O)N(c2cc(C#CC(C)(C)C)sc2C(=O)O)[C@H]2CC[C@](O)(CO[C@H]3CCOC3)CC2)CC1 [Compound C] | 877 ± 4 | 250.6 | 3.5 ± 0.3 | 3.5 ± 0.3 | 736 ± 18 | 210.3 | 877 ± 4 | 251 |  |  |  |  |
| CNC(=O)c1c(-c2ccc(F)cc2)oc2cc(N(CCO)S(C)(=O)=O)c(C3CC3)cc12 [HCV-796] | 21 | 1.1 | 20 ± 5.5 | 20 ± 5.5 | 21 | 1.1 | 21 ± 0.5 | 1.0 |  | retained activity against GT6a |  |  |
| COc1ccc2c(O[C@@H]3C[C@H]4C(=O)N[C@]5(C(=O)O)C[C@H]5/C=C\CCCCC[C@H](NC(=O)OC5CCCC5)C(=O)N4C3)cc(-c3csc(NC(C)C)n3)nc2c1 [BILN-2061] |  | 17.2 |  | 0.99 ± 0.1 |  | 17.2 |  |  |  |  | 17 ± 9 | 17 |
| CC(C)(C)NC(=O)N[C@H](C(=O)N1C[C@H]2[C@@H]([C@H]1C(=O)NC(CC1CCC1)C(=O)C(N)=O)C2(C)C)C(C)(C)C (some centres unmarked) [Boceprevir, boceprevir] |  | 0.9 | 188 ± 42 | 181 ± 42 |  | 1 | 177 ± 21 | 0.9 |  |  | 168 ± 21 | 185 ± 42 |
